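Five compound concentrations were applied to cells in 96-well plates for 48 hours; endpoints were derived by simple linear interpolation of the resulting dose-response curve. Abbreviation: GI50, concentration required for 50% inhibition of growth. TGI marks complete inhibition of growth.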
How the values were obtained:
Assay in all cases: NCI tumour cell line growth inhibition, 48 h
[1] = tested on: SF-539 CNS
[2] = tested on: LOX IMVI melanoma
[3] = tested on: MCF7 breast
[4] = tested on: A498 renal
[5] = tested on: SN12C renal
[6] = tested on: SR leukemia
[7] = tested on: HS 578T breast
[8] = tested on: MALME-3M melanoma
[9] = tested on: SNB-75 CNS
[10] = tested on: MOLT-4 leukemia
[11] = tested on: PC-3 prostate
[12] = tested on: M14 melanoma
[13] = tested on: SF-268 CNS
[14] = tested on: HCC-2998 colon
[15] = tested on: OVCAR-3 ovarian
[16] = tested on: OVCAR-5 ovarian
[17] = tested on: T-47D breast
[18] = tested on: HCT-15 colon
[19] = tested on: SK-MEL-5 melanoma
[20] = tested on: ACHN renal
[21] = tested on: HT29 colon
[22] = tested on: UACC-257 melanoma
[23] = tested on: UO-31 renal
[24] = tested on: 786-0 renal
[25] = tested on: COLO 205 colon
[26] = tested on: TK-10 renal
[27] = tested on: BT-549 breast
[28] = tested on: OVCAR-8 ovarian
[29] = tested on: SK-MEL-28 melanoma
[30] = tested on: RXF 393 renal
[31] = tested on: K-562 leukemia
[32] = tested on: RPMI-8226 leukemia
[33] = tested on: HL-60(TB) leukemia
[34] = tested on: EKVX NSCLC
[35] = tested on: HCT-116 colon
[36] = tested on: NCI/ADR-RES ovarian
[37] = tested on: NCI-H460 lung
[38] = tested on: SK-OV-3 ovarian
[39] = tested on: KM12 colon
[40] = tested on: SF-295 CNS
[41] = tested on: SW-620 colon
[42] = tested on: OVCAR-4 ovarian
[43] = tested on: NCI-H23 lung
[44] = tested on: MDA-MB-231 breast
[45] = tested on: CCRF-CEM leukemia
[46] = tested on: HOP-92 NSCLC
[47] = tested on: DU-145 prostate
[48] = tested on: UACC-62 melanoma
[49] = tested on: CAKI-1 renal
[50] = tested on: U251 CNS
[51] = tested on: HOP-62 NSCLC
[52] = tested on: SNB-19 CNS
[53] = tested on: NCI-H226 lung
[54] = tested on: MDA-MB-435
[55] = tested on: NCI-H522 lung
[56] = tested on: IGROV1 ovarian
[57] = tested on: A549 NSCLC
[58] = tested on: SK-MEL-2 melanoma

Question: How did the GI50 [1] turn out when `COc1ccc(-c2ccc3c(NC(=O)C4CC4)n[nH]c3n2)cc1` was run?
Answer: > 25 µM

Question: What about the TGI [1] of the same molecule?
Answer: > 25 µM

Question: And the GI50 [2]?
Answer: > 25 µM

Question: And the TGI [2]?
Answer: > 25 µM

Question: What about the GI50 [3] of the same molecule?
Answer: > 25 µM

Question: And the TGI [3]?
Answer: > 25 µM

Question: And the GI50 [4]?
Answer: > 25 µM

Question: And the TGI [4]?
Answer: > 25 µM

Question: And the GI50 [5]?
Answer: > 25 µM

Question: And the TGI [5]?
Answer: > 25 µM

Question: And the GI50 [6]?
Answer: > 25 µM

Question: And the TGI [6]?
Answer: > 25 µM

Question: And the GI50 [7]?
Answer: 23.6 µM

Question: What about the TGI [7] of the same molecule?
Answer: > 25 µM

Question: And the GI50 [8]?
Answer: > 25 µM

Question: What about the TGI [8] of the same molecule?
Answer: > 25 µM

Question: And the GI50 [9]?
Answer: 5.1 µM

Question: What about the TGI [9] of the same molecule?
Answer: > 17.2 µM

Question: And the GI50 [10]?
Answer: > 25 µM

Question: And the TGI [10]?
Answer: > 25 µM

Question: And the GI50 [11]?
Answer: > 25 µM

Question: What about the TGI [11] of the same molecule?
Answer: > 25 µM

Question: And the GI50 [12]?
Answer: > 25 µM

Question: What about the TGI [12] of the same molecule?
Answer: > 25 µM

Question: And the GI50 [13]?
Answer: 11.5 µM

Question: And the TGI [13]?
Answer: > 25 µM

Question: And the GI50 [14]?
Answer: > 25 µM

Question: And the TGI [14]?
Answer: > 25 µM

Question: And the GI50 [15]?
Answer: > 25 µM

Question: And the TGI [15]?
Answer: > 25 µM

Question: And the GI50 [16]?
Answer: > 25 µM

Question: What about the TGI [16] of the same molecule?
Answer: > 25 µM

Question: And the GI50 [17]?
Answer: > 25 µM

Question: And the TGI [17]?
Answer: > 25 µM

Question: And the GI50 [18]?
Answer: > 25 µM

Question: What about the TGI [18] of the same molecule?
Answer: > 25 µM

Question: What about the GI50 [19] of the same molecule?
Answer: > 25 µM

Question: And the TGI [19]?
Answer: > 25 µM

Question: And the GI50 [20]?
Answer: > 25 µM

Question: And the TGI [20]?
Answer: > 25 µM

Question: And the GI50 [21]?
Answer: > 25 µM

Question: What about the TGI [21] of the same molecule?
Answer: > 25 µM

Question: What about the GI50 [22] of the same molecule?
Answer: > 25 µM

Question: And the TGI [22]?
Answer: > 25 µM

Question: And the GI50 [23]?
Answer: > 20 µM

Question: And the TGI [23]?
Answer: > 25 µM

Question: What about the GI50 [24] of the same molecule?
Answer: > 20.1 µM

Question: And the TGI [24]?
Answer: > 25 µM

Question: What about the GI50 [25] of the same molecule?
Answer: > 25 µM

Question: And the TGI [25]?
Answer: > 25 µM

Question: And the GI50 [26]?
Answer: > 25 µM

Question: And the TGI [26]?
Answer: > 25 µM

Question: And the GI50 [27]?
Answer: > 14.3 µM

Question: What about the TGI [27] of the same molecule?
Answer: > 25 µM

Question: What about the GI50 [28] of the same molecule?
Answer: 11.7 µM

Question: And the TGI [28]?
Answer: > 25 µM

Question: And the GI50 [29]?
Answer: > 25 µM

Question: What about the TGI [29] of the same molecule?
Answer: > 25 µM

Question: And the GI50 [30]?
Answer: 15 µM

Question: What about the TGI [30] of the same molecule?
Answer: > 25 µM

Question: What about the GI50 [31] of the same molecule?
Answer: > 25 µM

Question: What about the TGI [31] of the same molecule?
Answer: > 25 µM

Question: What about the GI50 [32] of the same molecule?
Answer: > 25 µM

Question: And the TGI [32]?
Answer: > 25 µM

Question: And the GI50 [33]?
Answer: > 25 µM

Question: And the TGI [33]?
Answer: > 25 µM

Question: What about the GI50 [34] of the same molecule?
Answer: > 25 µM

Question: What about the TGI [34] of the same molecule?
Answer: > 25 µM

Question: What about the GI50 [35] of the same molecule?
Answer: > 25 µM

Question: What about the TGI [35] of the same molecule?
Answer: > 25 µM

Question: And the GI50 [36]?
Answer: > 25 µM

Question: What about the TGI [36] of the same molecule?
Answer: > 25 µM

Question: And the GI50 [37]?
Answer: > 25 µM

Question: What about the TGI [37] of the same molecule?
Answer: > 25 µM

Question: What about the GI50 [38] of the same molecule?
Answer: 19.6 µM

Question: What about the TGI [38] of the same molecule?
Answer: > 25 µM

Question: And the GI50 [39]?
Answer: > 25 µM

Question: What about the TGI [39] of the same molecule?
Answer: > 25 µM

Question: What about the GI50 [40] of the same molecule?
Answer: > 25 µM

Question: What about the TGI [40] of the same molecule?
Answer: > 25 µM

Question: What about the GI50 [41] of the same molecule?
Answer: > 25 µM

Question: What about the TGI [41] of the same molecule?
Answer: > 25 µM

Question: What about the GI50 [42] of the same molecule?
Answer: > 25 µM

Question: And the TGI [42]?
Answer: > 25 µM

Question: What about the GI50 [43] of the same molecule?
Answer: > 25 µM

Question: What about the TGI [43] of the same molecule?
Answer: > 25 µM

Question: And the GI50 [44]?
Answer: > 25 µM

Question: And the TGI [44]?
Answer: > 25 µM

Question: And the GI50 [45]?
Answer: > 25 µM

Question: What about the TGI [45] of the same molecule?
Answer: > 25 µM

Question: And the GI50 [46]?
Answer: 8.02 µM

Question: What about the TGI [46] of the same molecule?
Answer: > 25 µM

Question: And the GI50 [47]?
Answer: > 25 µM

Question: And the TGI [47]?
Answer: > 25 µM

Question: What about the GI50 [48] of the same molecule?
Answer: > 25 µM

Question: What about the TGI [48] of the same molecule?
Answer: > 25 µM

Question: And the GI50 [49]?
Answer: > 25 µM

Question: And the TGI [49]?
Answer: > 25 µM

Question: What about the GI50 [50] of the same molecule?
Answer: 18 µM

Question: And the TGI [50]?
Answer: > 25 µM

Question: And the GI50 [51]?
Answer: 7.64 µM

Question: And the TGI [51]?
Answer: > 22 µM

Question: And the GI50 [52]?
Answer: 15.9 µM

Question: What about the TGI [52] of the same molecule?
Answer: > 25 µM

Question: What about the GI50 [53] of the same molecule?
Answer: > 25 µM

Question: And the TGI [53]?
Answer: > 25 µM

Question: What about the GI50 [54] of the same molecule?
Answer: > 25 µM

Question: And the TGI [54]?
Answer: > 25 µM

Question: What about the GI50 [55] of the same molecule?
Answer: > 22.9 µM

Question: What about the TGI [55] of the same molecule?
Answer: > 25 µM

Question: What about the GI50 [56] of the same molecule?
Answer: > 25 µM

Question: And the TGI [56]?
Answer: > 25 µM

Question: And the GI50 [57]?
Answer: > 25 µM

Question: What about the TGI [57] of the same molecule?
Answer: > 25 µM

Question: What about the GI50 [58] of the same molecule?
Answer: > 25 µM

Question: What about the TGI [58] of the same molecule?
Answer: > 25 µM
